# Measured values as given in patent publication US20260378560A1, “APPROACHES TO DESIGNING AND PERFORMING COMPRESSED BIOLOGICAL EXPERIMENTS AND SYSTEMS FOR IMPLEMENTING THE SAME” (EXVIVO LABS INC., priority 2023, published 2026).
# Key:
# MOLT-4 [1] = assay: ATP-based luminescence cell viability (CellTiter Glo), drug response score, MOLT-4
# JURKAT = assay: ATP-based luminescence cell viability (CellTiter Glo), drug response score, JURKAT; conditions: Target compression
# From the text: (§1) As part of a screen, a drug could be screened at different concentrations ranging from a lowest concentration to a highest concentration. In such a scenario, multiple data structures may be obtained by the screening platform 210. […] With these multiple data structures, the analysis module 218 can generate a dose-response curve that describes the magnitude of the response of the biological target, as a function of exposure to different concentrations of the drug. Further, the analysis module 218 can calculate a metric that is indicative of the response of the biological target. In the event that the biological target is one of multiple biological targets that are introduced to the pools of drugs, the metric can be used by the screening platform 210 to better understand the relative magnitude of responses. One example of a metric is drug-response score (“DRS”). DRS can be calculated as a continuous function of multiple parameters of the non-linear dose-response curve, including the slope at the half-maximal effective concentration (also called “EC50”) and the top and bottom asymptotes of the dose-response curve. DRS can be calculated as follows: […]
# (§2) where y is a continuous function of the variable dose x, a is the maximal response (i.e., the top asymptote of the curve), b is the slope of the curve, c is the IC50 (i.e., half-maximal inhibitory concentration), and d is the minimal response (i.e., the bottom asymptote of the curve). Other examples of metrics include those output by sigmoidal and Hill slide functions that, like DRS, incorporate multiple aspects of the dose-response curve into a continuous function.
# (§3) Total cell viability was measured for each cancer cell line using an Adenosine TriPhosphate (“ATP”) assay, and more specifically an ATP-based luminescence assay (i.e., CellTiter Glo). Each cancer drug was screened at multiple concentrations ranging from one nanomolar (nM) to ten micromolar (UM) in order to generate a dose-response curve and calculate a drug response score (“DRS”) for each cancer cell line. The DRS was calculated as a continuous function of multiple parameters of the non-linear dose-response curve, including the slope at the half-maximal effective concentration (also called “EC50”) and the top and bottom asymptotes of the dose-response curve. […] After total cell viability was measured and DRS was calculated, the DRS of each cancer cell line in the pool was deconvolved for each cancer drug.
# DRS for these anchor cell lines are bolded and italicized. Anchors can be identified based on frequency of the cell lines in pools with high DRS versus low DRS. At a high level, an anchor is predicted to be the cell line with the lowest individual DRS. In order to deconvolute individual cell line DRS values from pool DRS values, the anchor can start with an assumed DRS value of zero. Each pool can then be expressed as a polynomial of variables (cell lines in the pool) and constants (DRS value of the pool). The DRS value of each cell line can then be solved for using the anchor value and overlapping polynomial expressions. When multiple values are calculated for the final target solved from the polynomials, then the anchor has a non-zero value that can be determined based on the difference in the calculated value of the final target.
# (§4) Each pool represented a co-culture of three cell lines (“Target Compression”).
# [2] = tested on: co-culture of three cancer cell lines; assay: Cell viability (CellTiter Glo) of compressed target pools, co-cultures of three cell lines (Target Compression); format: cell-based
# Procedure: as §3, §4
# MOLT-4 [3] = assay: ATP-based luminescence cell viability (CellTiter Glo), drug response score, MOLT-4; conditions: MOLT-4, screened individually (Compress: None)
# From the text: as §1, §2
# Total cell viability was measured for each cancer cell line using an Adenosine TriPhosphate (“ATP”) assay, and more specifically an ATP-based luminescence assay (i.e., CellTiter Glo). […] The DRS was calculated as a continuous function of multiple parameters of the non-linear dose-response curve, including the slope at the half-maximal effective concentration (also called “EC50”) and the top and bottom asymptotes of the dose-response curve. […] After total cell viability was measured and DRS was calculated, the DRS of each cancer cell line in the pool was deconvolved for each cancer drug.
# DRS for these anchor cell lines are bolded and italicized. […] Each pool can then be expressed as a polynomial of variables (cell lines in the pool) and constants (DRS value of the pool). […] When multiple values are calculated for the final target solved from the polynomials, then the anchor has a non-zero value that can be determined based on the difference in the calculated value of the final target. […]
# SUP-B15 = assay: ATP-based luminescence cell viability (CellTiter Glo), drug response score, SUP-B15; parameters: scale not given here; conditions: SUP-B15, screened individually (Compress: None)
# [4] = tested on: library of cancer cell lines; assay: Hit profile of cancer drugs across library of cancer cell lines (cell viability); format: cell-based; conditions: across cancer cell lines screened individually
# Procedure: Total cell viability was measured for each cancer cell line using an Adenosine TriPhosphate (“ATP”) assay, and more specifically an ATP-based luminescence assay (i.e., CellTiter Glo). Each cancer drug was screened at multiple concentrations ranging from one nanomolar (nM) to ten micromolar (UM) in order to generate a dose-response curve and calculate a drug response score (“DRS”) for each cancer cell line. The DRS was calculated as a continuous function of multiple parameters of the non-linear dose-response curve, including the slope at the half-maximal effective concentration (also called “EC50”) and the top and bottom asymptotes of the dose-response curve. […]
# Table I includes several examples of cancer drugs and their DRSs across each cancer cell line in the aforementioned experiment.
# CCRF-HSB2 = assay: ATP-based luminescence cell viability (CellTiter Glo), drug response score, CCRF-HSB2; conditions: CCRF-HSB2, screened individually (Compress: None)
# CCRF-CFM = assay: ATP-based luminescence cell viability (CellTiter Glo), drug response score, CCRF-CFM; parameters: scale not given here
# [5] = tested on: pooled samples of three cancer cell lines; assay: Cell viability (CellTiter Glo) of compressed pooled samples of three individually cultured cell lines (Sample Compression); format: cell-based
# Procedure: as §3
# A benefit of the compression methodology is the ability to compress members of a library into pools for co-culture screens or compress individual cell cultures into pooled samples for measurement. For example, leukemia cell lines can interact in co-cultures through their immune receptors, which may result in cell activation, cytokine production, and other effects that may impact drug sensitivity and resistance. […] Instead of creating compressed target cells in pooled co-cultures, compression was instead used to enable individual cultures of each cell line, with pooled measurements to reduce reagents and instrument time. With individual cultures and sample compression, it was possible to accurately deconvolute DRS for each drug on each cell line, as shown in Table IV.
# [6] = 5 Pick 3, Pool 1 (REH, SUP-B15, CCRF-CFM)
# [7] = 5 Pick 3, Pool 2 (SUP-B15, CCRF-HSB2, MOLT-4)
# [8] = 5 Pick 3, Pool 3 (SUP-B15, CCRF-CFM, CCRF-HSB2)
# [9] = 5 Pick 3, Pool 4 (REH, CCRF-CFM, MOLT-4)
# [10] = 5 Pick 3, Pool 5 (REH, CCRF-HSB2, MOLT-4)
compound,measurement,setting,value
CC1(C)CCC(CN2CCN(c3ccc(C(=O)NS(=O)(=O)c4ccc(NCC5CCOCC5)c([N+](=O)[O-])c4)c(Oc4cnc5[nH]ccc5c4)c3)CC2)=C(c2ccc(Cl)cc2)C1 [Venetoclax],DRS from deconvolution,"MOLT-4 [1]; MOLT-4, Sample compression, 5 Pick 3 pools",1.26
same,DRS from deconvolution,"MOLT-4 [1]; MOLT-4, Target compression, 5 Pick 3 pools",0.87
same,DRS from deconvolution,"MOLT-4 [1]; MOLT-4, Target compression, 6 Pick 3 pools",2.79
same,DRS from deconvolution,"MOLT-4 [1]; MOLT-4, Target compression, 7 Pick 3 pools",2.98
same,DRS from deconvolution,JURKAT; 6 Pick 3 pools,0.00
same,DRS from deconvolution,JURKAT; 7 Pick 3 pools,1.88
same,DRS of pool,[2]; [6],14.50
same,DRS of pool,[2]; [7],13.53
same,DRS of pool,[2]; [8],13.46
same,DRS of pool,[2]; [9],2.70
same,DRS of pool,[2]; [10],2.43
same,DRS of pool,"[2]; 6 Pick 3, Pool 1 (REH, CCRF-CFM, MOLT-4)",2.60
same,DRS of pool,"[2]; 6 Pick 3, Pool 2 (REH, CCRF-HSB2, MOLT-4)",2.26
same,DRS of pool,"[2]; 6 Pick 3, Pool 3 (REH, CCRF-CFM, JURKAT)",1.57
same,DRS of pool,"[2]; 6 Pick 3, Pool 4 (SUP-B15, CCRF-HSB2, JURKAT)",13.22
same,DRS of pool,"[2]; 6 Pick 3, Pool 5 (SUP-B15, CCRF-CFM, JURKAT)",12.95
same,DRS of pool,"[2]; 6 Pick 3, Pool 6 (SUP-B15, CCRF-HSB2, MOLT-4)",13.01
same,DRS of pool,"[2]; 7 Pick 3, Pool 1 (SUP-B15, CCRF-CFM, JURKAT)",12.97
same,DRS of pool,"[2]; 7 Pick 3, Pool 2 (SUP-B15, CCRF-HSB2, NALM-6)",14.37
same,DRS of pool,"[2]; 7 Pick 3, Pool 3 (SUP-B15, CCRF-CFM, NALM-6)",15.70
same,DRS of pool,"[2]; 7 Pick 3, Pool 4 (REH, CCRF-HSB2, JURKAT)",1.25
same,DRS of pool,"[2]; 7 Pick 3, Pool 5 (REH, MOLT-4, NALM-6)",4.62
same,DRS of pool,"[2]; 7 Pick 3, Pool 6 (REH, MOLT-4, JURKAT)",2.25
same,DRS of pool,"[2]; 7 Pick 3, Pool 7 (CCRF-CFM, CCRF-HSB2, MOLT-4)",1.35
same,drug response score (DRS),MOLT-4 [3],2.90
same,drug response score (DRS),SUP-B15,37.40
same,Hits (hit profile),[4],One
same,drug response score (DRS),CCRF-HSB2,0.00
same,DRS from deconvolution,"CCRF-CFM; Sample compression, 5 Pick 3 pools",0.50
same,drug response score (DRS),CCRF-CFM; screened individually (Compress: None),1.10
same,DRS of pool,[5]; [6],13.99
same,DRS of pool,[5]; [7],13.60
same,DRS of pool,[5]; [8],12.57
same,DRS of pool,[5]; [9],2.91
same,DRS of pool,[5]; [10],2.41
